Experiments:
[1] = system: S. pneumoniae D39V; assay: fitness (endpoint OD595 vs no drug) (fraction); higher = more growth
In short: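 Plates with 384 wells were inoculated at OD595 0.01 using 30 µl of TSB, LB Lennox or CY, or 55 µl for S. pneumoniae. Incubation was at 37 °C, with OD595 measured every 30 min for 14 h. Fitness is the stationary-phase transition optical density over the robust mean of no-drug control wells, after first-reading background subtraction; it is capped at 1.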

[2] = system: B. subtilis 168; assay: Bliss interaction score (quartile over a dose matrix) (fitness difference); higher = more antagonism (negative = synergy)
In short: (§1)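 Fitness was OD595 at entry into stationary phase divided by the plate's robust no-drug mean and capped at 1; single-drug fitness was inferred from combination data. The Bliss score is observed minus expected (product) fitness, summarised by quartiles over technical, biological and donor/recipient replicates.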

[3] = system: S. aureus DSM 20231; assay: as above
In short: as §1

[4] = system: S. aureus Newman; assay: as above
In short: as §1

[5] = system: S. pneumoniae D39V; assay: as above
In short: as §1
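Wherever Bliss interaction score (quartile over a dose matrix) is given: first quartile when negative (synergy) and third quartile when positive (antagonism).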

C[C@@H](O)[C@H]1C(=O)N2C(C(=O)O)=C(SCCNC=N)C[C@H]12 [Imipenem] + C[n+]1ccc(-c2cc[n+](C)cc2)cc1 [Paraquat]
fitness, [1], one replicate
Settings	first compound 0.005 µg/mL	first compound 0.01 µg/mL	first compound 0.02 µg/mL
partner 1.5 µg/mL	0.991	0.997	≥ 1
partner 3 µg/mL	0.994	0.996	≥ 1
partner 6 µg/mL	≥ 1	≥ 1	0.998

fitness, [1]
Settings	first compound 0.0065 µg/mL	first compound 0.013 µg/mL	first compound 0.026 µg/mL
partner 1.5 µg/mL	0.97	0.983	–
partner 3 µg/mL	0.968	0.969	0.939
partner 6 µg/mL	0.926	0.799	0.847

Settings	Bliss interaction score
[2]	-0.0424
[3]	0.0307
[4]	0.0426
[5]	0.0638

O=C1CN(/N=C/c2ccc([N+](=O)[O-])o2)C(=O)N1 [Nitrofurantoin] + COc1ccc(C[C@H](N)C(=O)N[C@H]2[C@@H](O)[C@H](n3cnc4c(N(C)C)ncnc43)O[C@@H]2CO)cc1 [Puromycin]
fitness, [1]
Settings	partner 1 µg/mL	partner 2 µg/mL	partner 4 µg/mL
first compound 1.285 µg/mL	0.989	0.966	0.808
first compound 2.57 µg/mL	0.947	0.901	0.742

fitness, [1], one replicate
Settings	first compound 2 µg/mL	first compound 4 µg/mL	first compound 5.14 µg/mL	first compound 8 µg/mL
partner 1 µg/mL	0.901	0.899	0.905	0.652
partner 2 µg/mL	0.821	0.915	0.88	0.711
partner 4 µg/mL	0.757	0.767	0.592	0.38

Settings	Bliss interaction score
[2]	0.1
[3]	0.0289
[4]	0.098
[5]	-0.135

C[C@@H](O)[C@H]1C(=O)N2C(C(=O)O)=C(SCCNC=N)C[C@H]12 [Imipenem] + Clc1ccc(COC(Cn2ccnc2)c2ccc(Cl)cc2Cl)c(Cl)c1 [Miconazole]
fitness, [1]
Settings	first compound 0.005 µg/mL	first compound 0.0065 µg/mL	first compound 0.01 µg/mL	first compound 0.013 µg/mL	first compound 0.02 µg/mL	first compound 0.026 µg/mL
partner 1.073 µg/mL	≥ 1	–	≥ 1	–	≥ 1	–
partner 1.25 µg/mL	–	0.877	–	0.869	–	0.72
partner 2.145 µg/mL	≥ 1	–	0.998	–	0.99	–
partner 2.5 µg/mL	–	0.892	–	0.907	–	0.761
partner 4.29 µg/mL	0.955	–	0.95	–	0.882	–
partner 5 µg/mL	–	0.908	–	0.947	–	0.886

Settings	Bliss interaction score
[2]	-0.0815
[3]	0.0412
[4]	-0.0307
[5]	0.0759

C[C@@H](O)[C@H]1C(=O)N2C(C(=O)O)=C(SCCNC=N)C[C@H]12 [Imipenem] + Cn1nnc(-c2ccc(-c3ccc(N4C[C@H](CO)OC4=O)cc3F)cn2)n1 [Tedizolid]
fitness, [1]
Settings	first compound 0.005 µg/mL	first compound 0.0065 µg/mL	first compound 0.01 µg/mL	first compound 0.013 µg/mL	first compound 0.02 µg/mL	first compound 0.026 µg/mL
partner 0.03125 µg/mL	0.922	–	0.917	–	0.913	–
partner 0.0625 µg/mL	0.958	–	0.949	–	0.993	–
partner 0.125 µg/mL	0.829	0.68	0.795	0.758	0.82	0.553
partner 0.25 µg/mL	–	0.553	–	0.607	–	0.578
partner 0.5 µg/mL	–	0.125	–	0.161	–	0.151

Settings	Bliss interaction score
[2]	0.21
[3]	-0.0424
[4]	0.0821
[5]	-0.17

C[C@@H](O)[C@H]1C(=O)N2C(C(=O)O)=C(SCCNC=N)C[C@H]12 [Imipenem] + CC(=O)NC[C@H]1CN(c2ccc(N3CCOCC3)c(F)c2)C(=O)O1 [Linezolid]
fitness, [1]
Settings	first compound 0.005 µg/mL	first compound 0.0065 µg/mL	first compound 0.01 µg/mL	first compound 0.013 µg/mL	first compound 0.02 µg/mL	first compound 0.026 µg/mL
partner 0.105 µg/mL	0.845	–	0.837	–	0.833	–
partner 0.2 µg/mL	–	0.7	–	0.775	–	0.71
partner 0.21 µg/mL	0.752	–	0.727	–	0.701	–
partner 0.4 µg/mL	–	0.506	–	0.592	–	0.494
partner 0.42 µg/mL	0.6	–	0.47	–	0.578	–
partner 0.8 µg/mL	–	0.116	–	0.225	–	0.148

Settings	Bliss interaction score
[2]	0.128
[3]	0.0377
[4]	0.0656
[5]	-0.109

C[C@@H](O)[C@H]1C(=O)N2C(C(=O)O)=C(SCCNC=N)C[C@H]12 [Imipenem] + CN(N=O)C(=O)N[C@@H](C=O)[C@@H](O)[C@H](O)[C@H](O)CO [Streptozotocin]
fitness, [1], one replicate
Settings	first compound 0.005 µg/mL	first compound 0.01 µg/mL	first compound 0.02 µg/mL
partner 1.2 µg/mL	0.986	0.949	≥ 1
partner 2.4 µg/mL	0.983	0.931	0.97
partner 4.8 µg/mL	0.917	0.86	0.94

fitness, [1]
Settings	first compound 0.0065 µg/mL	first compound 0.013 µg/mL	first compound 0.026 µg/mL
partner 1.2 µg/mL	0.966	0.908	0.908
partner 2.4 µg/mL	0.942	0.884	0.824
partner 4.8 µg/mL	0.968	0.945	0.966

Settings	Bliss interaction score
[2]	-0.138
[3]	-0.0317
[4]	-0.0113
[5]	0.0577

Reference: the supplement of paper PMC10627819
